Consider `Cn1ncnc1COc1nn2c(-c3ccccc3F)nnc2cc1-c1cccs1` (hydrate or solvate) [Example 18, 3-(2-Fluorophenyl)-6-(2-methyl-2H-1,2,4-triazol-3-ylmethoxy)-7-(thien-2-yl)-1,2,4-triazolo[4,3-b]pyridazine], for which the melting point lay in the range of 189 to 190 °C. Next, `Cn1ncnc1COc1nn2c(-c3ccc(F)cc3F)nnc2cc1C1(C)CCCCC1` [Example 12, 3-(2,4-Difluorophenyl)-7-(1-methylcyclohexyl)-6-(2-methyl-2H-1,2,4-triazol-3-ylmethoxy)-1,2,4-triazolo[4,3-b]pyridazine]: 196 °C. Next, `Cn1cnc(COc2nn3c(-c4ccc(F)cc4F)nnc3cc2C2(C)CCCCC2)n1` [Example 13, 3-(2,4-Difluorophenyl)-7-(1-methylcyclohexyl)-6-(1-methyl-1H-1,2,4-triazol-3-ylmethoxy)-1,2,4-triazolo[4,3-b]pyridazine]: 156 °C; `Cn1ccc(COc2nn3c(-c4ccccc4F)nnc3cc2C2CCC2)n1` [Example 14, 7-Cyclobutyl-3-(2-fluorophenyl)-6-(1-methyl-1H-pyrazol-3-ylmethoxy)-1,2,4-triazolo[4,3-b]pyridazine]: 184 to 186 °C; `Cc1cc(COc2nn3c(-c4ccccc4F)nnc3cc2C2CCC2)no1` [Example 15, 7-Cyclobutyl-3-(2-fluorophenyl)-6-(5-methylisoxazol-3-ylmethoxy)-1,2,4-triazolo[4,3-b]pyridazine]: 150 °C.

`Cn1ccnc1COc1nn2c(-c3ccccc3F)nnc2cc1C1CCC1` [Example 16, 7-Cyclobutyl-3-(2-fluorophenyl)-6-(1-methyl-1H-Imidazol-2-ylmethoxy)-1,2,4-triazolo[4,3-b]pyridazine] had a melting point of 173 °C.

In the case of `Cn1cnnc1COc1nn2c(-c3ccccc3F)nnc2cc1C1CCC1` [Example 17, 7-Cyclobutyl-3-(2-fluorophenyl)-6-(4-methyl-4H-1,2,4-triazol-3-ylmethoxy)-1,2,4-triazolo[4,3-b]pyridazine], the melting point is 228 °C. The value for `Cn1ncnc1COc1nn2c(-c3ccc(F)cc3F)nnc2cc1-c1cccs1` [Example 19, 3-(2,4-Difluorophenyl)-6-(2-methyl-2H-1,2,4-triazol-3-ylmethoxy)-7-(thien-2-yl)-1,2,4-triazolo[4,3-b]pyridazine] was 209 to 212 °C.

Turning to `Cn1cnc(COc2nn3c(-c4ccccc4F)nnc3cc2C2CCC2)c1` [Example 24, 7-Cyclobutyl-3-(2-fluorophenyl)-6-(1-methyl-1H-imidazol-4-ylmethoxy)-1,2,4triazolo[4,3-b]pyridazine], the melting point worked out at 176 °C. `Cn1ncnc1COc1nn2c(-c3ccccc3F)nnc2cc1C1(F)CCC1` [Example 25, 7-(1-Fluorocyclobutyl)-3-(2-fluorophenyl)-6-(2-methyl-2H-1,2,4-triazol-3-ylmethoxy)-1,2,4-triazolo[4,3-b]pyridazine] yielded a melting point of 154 to 162 °C. Next, `Cn1nccc1COc1nn2c(-c3ccccc3F)nnc2cc1C1CCC1` [Example 26, 7-Cyclobutyl-3-(2-fluorophenyl)-6-(2-methyl-2H-pyrazol-3-ylmethoxy)-1,2,4-triazolo[4,3-b]pyridazine]: 184 to 186 °C. As to `CC(C)Cc1cc2nnc(-c3ccccc3F)n2nc1OCc1ncnn1C` [Example 28, 3-(2-Fluorophenyl)-7-(2-methylpropyl)-6-(2-methyl-2H-1,2,4-triazol-3-ylmethoxy)-1,2,4-triazolo[4,3-b]pyridazine], the melting point fell in the range of 134 to 136 °C.

`CC(C)CCc1cc2nnc(-c3ccccc3F)n2nc1OCc1ncnn1C` [Example 29, 3-(2-Fluorophenyl)-7-(3-methylbutyl)-6-(2-methyl-2H-1,2,4-triazol-3-ylmethoxy)-1,2,4-triazolo[4,3-b]pyridazine] returned a melting point of 103 to 105 °C.

Consider `Cn1ncnc1COc1nn2c(-c3ccccc3F)nnc2cc1CC1CCCC1` [Example 30, 7-Cyclopentylmethyl-3-(2-fluorophenyl)-6-(2-methyl-2H-1,2,4-triazol-3-ylmethoxy)-1,2,4-triazolo[4,3-b]pyridazine], for which the melting point is 135 to 137 °C. The value for `Cn1ncnc1COc1nn2c(-c3ccccc3F)nnc2cc1C(F)(F)F` [Example 35, 3-(2-Fluorophenyl)-6-(2-methyl-2H-1,2,4-triazol-3-ylmethoxy)-7-trifluoromethyl-1,2,4-triazolo[4,3-b]pyridazine] was 123 to 126 °C; that for `Cn1ncnc1COc1nn2c(-c3ccccc3F)nnc2cc1C1(C)CCOCC1` [Example 36, 3-(2-Fluorophenyl)-7-(4-methyltetrahydropyran-4-yl)-6-(2-methyl-2H-1,2,4-triazol-3-ylmethoxy)-1,2,4-triazolo [4,3-b]pyridazine] was 191 °C; that for `Cn1cnc(COc2nn3c(-c4ccccc4F)nnc3cc2C2(C)CCOCC2)n1` [Example 37, 3-(2-Fluorophenyl)-7-(4-methyltetrahydropyran-4-yl)-6-(1-methyl-1H-1,2,4-triazol-3-ylmethoxy)-1,2,4-triazolo [4,3-b]pyridazine] was 154 °C. Next, `Cn1cnc(COc2nn3c(-c4ccccc4F)nnc3cc2C2(C)CCC(F)(F)CC2)n1` [Example 40, 7-(4,4-Difluoro-1-methylcyclohexyl)-3-(2-fluorophenyl)-6-(1-methyl-1H-1,2,4-triazol-3-ylmethoxy)-1,2,4-triazolo [4,3-b]pyridazine]: 193 °C; `Cn1ncnc1COc1nn2c(-c3ccccc3F)nnc2cc1C1CC(F)(F)C1` [Example 42, 7-(3,3-Difluorocyclobutyl)-3-(2-fluorophenyl)-6-(2-methyl-2H-1,2,4-triazol-3-ylmethoxy)-1,2,4-triazolo[4,3-b]pyridazine]: 178 °C; `Cn1ncnc1COc1nn2c(-c3ccccc3F)nnc2cc1C1CCCO1` (stereo not drawn) [Example 43, 3-(2-Fluorophenyl)-6-(2-methyl-2H-1,2,4-triazol-3-ylmethoxy)-7-(tetrahydrofur-2-yl)-1,2,4-triazolo[4,3-b]pyridazine]: 136 to 139 °C. Next, `Cn1ncnc1COc1nn2c(-c3ccccc3F)nnc2cc1-c1cccc(F)c1` [Example 44, 7-(3-Fluorophenyl)-3-(2-fluorophenyl)-6-(2-methyl-2H-1,2,4-triazol-3-ylmethoxy)-1,2,4-triazolo[4,3-b]pyridazine]: 204 to 206 °C.

What is called melting point is the temperature of the solid-liquid transition.
